cAMP generation, AC activity and ERK phosphorylation data for one compound are collected here from patent US20240124594A1, “TREATMENT OF CVD AND SYSTEMIC SCEROSIS WITH BETA-1 ADRENERGIC RECEPTOR ANTIBODIES” (The Cleveland Clinic Foundation, priority 2021, published 2024).

Assay [1] concerns the target T1, human β1AR (Homo sapiens, UniProt P08588). Put plainly: cAMP generation in β1AR-HEK 293 cells (Catchpoint cAMP kit). The note with it: agent alone, 10 μM for 10 min, serum starved cells, vs control.
Description: cAMP generation assay was performed using whole cell lysates. The assay was done using the standard manufacturer's protocol.
A further assay addresses T2, human cardiac β1AR (Homo sapiens, UniProt P08588).
T2 construct: non-failing human hearts were used as an endogenous system; tissue Cleveland Clinic's Tissue Bank; host or cells: non-failing donor human heart, plasma membrane fraction
Briefly: AC activity in cardiac plasma membranes from non-failing donor human hearts. The format is biochemical. The following applies: agent alone, absence of IgG3 autoantibodies. As for the experimental part: (§1) Briefly the treated cells were scraped using osmotic lysis buffer (5 mM Tris-HCl, pH 7.4; 5 mM EDTA; 1 mM PMSF; 2 μg/mL Leupeptin and 1 μg/mL Aprotinin) and homogenized by douncing. Cardiac tissue samples from non-failing human hearts were homogenized in osmotic lysis buffer using Polytron® homogenizer. This was followed by toggling the samples for 10 mins. The intact cells and nuclei were removed by centrifuging these samples at 2500 rpm for 5 mins. The collected supernatant was centrifuged at 17500 rpm for 30 minutes to obtain the plasma membrane as pellet. All the above steps were performed at 4° C.

Assay [2] deals with T1, human β1AR. Put plainly: phospho-ERK immunoblotting in β1AR-HEK 293 cells. The following applies: agent alone.
In assay [3] the target is T1, human β1AR. Put plainly: Adenylyl cyclase (AC) assay on plasma membranes of HEK-β1AR cells (G-protein coupling). The following applies: agent alone, isolated plasma membranes. Details: FLAG; expressed in transfected cells; pcDNA3.1(-) plasmid, a gift from Dr. Yang K. Xiang. The format is biochemical. Here is the method:
as §1

T1 sequence (P08588 whole entry): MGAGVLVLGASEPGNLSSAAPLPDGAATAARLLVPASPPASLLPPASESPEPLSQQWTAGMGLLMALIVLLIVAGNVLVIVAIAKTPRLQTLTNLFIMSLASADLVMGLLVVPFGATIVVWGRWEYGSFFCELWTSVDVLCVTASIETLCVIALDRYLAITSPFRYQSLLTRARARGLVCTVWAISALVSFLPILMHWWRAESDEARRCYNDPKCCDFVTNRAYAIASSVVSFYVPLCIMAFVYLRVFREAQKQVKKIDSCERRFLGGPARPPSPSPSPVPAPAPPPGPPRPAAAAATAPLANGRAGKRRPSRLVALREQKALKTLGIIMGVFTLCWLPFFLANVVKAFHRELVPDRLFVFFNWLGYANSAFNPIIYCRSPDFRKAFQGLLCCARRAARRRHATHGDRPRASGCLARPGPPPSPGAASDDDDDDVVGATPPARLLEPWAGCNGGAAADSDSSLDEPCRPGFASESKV
T2 sequence (P08588 whole entry): as above

Consider `CC(CCc1ccc(O)cc1)NCCc1ccc(O)c(O)c1` (stereo not shown) [Dob, dobutamine], for which, at human β1AR [1], the cAMP generation result was “significantly increased”. Further, the AC activity result is given as “activating AC activity” on human cardiac β1AR and “significantly increased AC activity” at human β1AR [3]. In addition, the ERK phosphorylation entry at human β1AR [2] is given as “significantly increased”.
